Data reported in patent publication US11306092B2, “Amino indole compounds useful as TLR inhibitors” (BRISTOL-MYERS SQUIBB COMPANY, priority 2017, dated 2022).

What was measured:
[1] = biological target: T1, human TLR7 (Homo sapiens, UniProt Q9NYK1); experiment: TLR7 inhibition reporter assay (HEK-Blue SEAP reporter); type: cell-based; details: HEK-Blue cells overexpressing human TLR7; gardiquimod 7.5 μM; 22 hour incubation
T1 construct: host or cells: HEK-Blue cells
T1 sequence (Q9NYK1 27-1049): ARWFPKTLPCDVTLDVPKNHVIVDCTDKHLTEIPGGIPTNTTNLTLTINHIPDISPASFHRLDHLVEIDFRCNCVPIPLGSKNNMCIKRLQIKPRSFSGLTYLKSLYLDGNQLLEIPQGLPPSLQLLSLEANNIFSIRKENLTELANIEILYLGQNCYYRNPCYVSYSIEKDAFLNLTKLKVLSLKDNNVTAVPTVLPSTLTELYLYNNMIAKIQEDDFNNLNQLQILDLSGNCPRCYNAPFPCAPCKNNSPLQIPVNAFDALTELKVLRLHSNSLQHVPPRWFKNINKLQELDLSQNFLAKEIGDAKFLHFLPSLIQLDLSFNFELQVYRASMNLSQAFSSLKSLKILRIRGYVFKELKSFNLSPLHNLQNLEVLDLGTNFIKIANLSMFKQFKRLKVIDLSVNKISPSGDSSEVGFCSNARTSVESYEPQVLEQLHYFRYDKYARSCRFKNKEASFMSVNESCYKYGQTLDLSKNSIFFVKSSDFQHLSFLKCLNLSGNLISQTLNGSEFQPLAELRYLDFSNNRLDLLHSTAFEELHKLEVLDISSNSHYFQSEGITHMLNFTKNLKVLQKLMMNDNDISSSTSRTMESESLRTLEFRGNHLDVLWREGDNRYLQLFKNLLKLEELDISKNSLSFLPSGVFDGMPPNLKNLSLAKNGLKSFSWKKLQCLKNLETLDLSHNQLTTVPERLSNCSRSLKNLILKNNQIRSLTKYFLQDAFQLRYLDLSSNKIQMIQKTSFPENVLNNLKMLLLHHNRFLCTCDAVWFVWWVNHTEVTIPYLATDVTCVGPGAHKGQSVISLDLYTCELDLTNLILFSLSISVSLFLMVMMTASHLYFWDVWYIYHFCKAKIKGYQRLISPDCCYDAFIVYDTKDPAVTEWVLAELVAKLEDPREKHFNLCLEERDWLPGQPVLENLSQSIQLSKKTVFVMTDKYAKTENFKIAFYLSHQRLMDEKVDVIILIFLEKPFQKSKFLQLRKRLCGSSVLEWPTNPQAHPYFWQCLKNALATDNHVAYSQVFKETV
Description: (§1) TLR7/8/9 Inhibition Reporter Assays
(§2) HEK-Blue™-cells (Invivogen) overexpressing human TLR7, TLR8 or TLR9 receptors were used for screening inhibitors of these receptors using an inducible SEAP (secreted embryonic alkaline phosphatase) reporter gene under the control of the IFN-β minimal promoter fused to five NF-κB and AP-1-binding sites. Briefly, cells are seeded into Greiner 384 well plates (15000 cells per well for TLR7, 20,000 for TLR8 and 25,000 for TLR9) and then treated with test compounds in DMSO to yield a final dose response concentration range of 0.05 nM-50 μM. After a 30 minute compound pre-treatment at room temperature, the cells are then stimulated with a TLR7 ligand (gardiquimod at a final concentration of 7.5 μM), TLR8 ligand (R848 at a final concentration of 15.9 μM) or TLR9 ligand (ODN2006 at a final concentration of 5 nM) to activate NF-κB and AP-1 which induce the production of SEAP. After a 22 hour incubation at 37° C., 5% CO2, SEAP levels are determined with the addition of HEK-Blue™ Detection reagent (Invivogen), a cell culture medium that allows for detection of SEAP, according to manufacturer's specifications. The percent inhibition is determined as the % reduction in the HEK-Blue signal present in wells treated with agonist plus DMSO alone compared to wells treated with a known inhibitor.

[2] = biological target: T2, human TLR9 (Homo sapiens, UniProt Q9NR96); experiment: TLR9 inhibition reporter assay (HEK-Blue SEAP reporter); type: cell-based; details: HEK-Blue cells overexpressing human TLR9; ODN2006 5 nM; 22 hour incubation
T2 construct: host or cells: HEK-Blue cells
T2 sequence (Q9NR96 26-1032): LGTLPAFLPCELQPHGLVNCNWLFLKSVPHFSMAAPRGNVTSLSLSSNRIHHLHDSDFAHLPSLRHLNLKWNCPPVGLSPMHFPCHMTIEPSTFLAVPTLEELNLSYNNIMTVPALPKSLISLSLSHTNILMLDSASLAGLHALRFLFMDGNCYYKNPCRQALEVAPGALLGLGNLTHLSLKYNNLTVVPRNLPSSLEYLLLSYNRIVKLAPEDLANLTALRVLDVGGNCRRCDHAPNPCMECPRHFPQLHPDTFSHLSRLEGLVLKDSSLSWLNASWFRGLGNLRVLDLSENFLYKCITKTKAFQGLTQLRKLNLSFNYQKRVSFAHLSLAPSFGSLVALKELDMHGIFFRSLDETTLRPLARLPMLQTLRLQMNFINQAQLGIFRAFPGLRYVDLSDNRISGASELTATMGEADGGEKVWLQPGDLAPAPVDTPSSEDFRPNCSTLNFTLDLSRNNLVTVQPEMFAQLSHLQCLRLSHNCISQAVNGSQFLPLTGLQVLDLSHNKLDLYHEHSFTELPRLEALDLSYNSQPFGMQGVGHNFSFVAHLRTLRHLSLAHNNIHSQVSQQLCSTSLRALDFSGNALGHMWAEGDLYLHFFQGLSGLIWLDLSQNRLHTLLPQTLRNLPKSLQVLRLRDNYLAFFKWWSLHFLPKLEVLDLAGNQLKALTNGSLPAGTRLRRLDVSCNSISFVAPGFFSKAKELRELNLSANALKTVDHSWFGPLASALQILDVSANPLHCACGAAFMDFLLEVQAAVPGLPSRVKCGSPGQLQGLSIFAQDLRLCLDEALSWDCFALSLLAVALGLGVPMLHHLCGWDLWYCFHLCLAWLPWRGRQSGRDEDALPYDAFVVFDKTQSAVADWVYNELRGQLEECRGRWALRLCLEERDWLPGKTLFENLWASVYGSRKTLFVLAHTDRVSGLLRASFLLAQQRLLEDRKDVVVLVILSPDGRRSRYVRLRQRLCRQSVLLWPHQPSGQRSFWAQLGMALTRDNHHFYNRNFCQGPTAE
Description: as §1, §2

Structure (SMILES) | IC50 [1] [nM] | IC50 [2] [nM]
COc1ccc(-c2[nH]c3ccc(NC4CCC(N5CCN(CC(C)C)CC5)CC4)cc3c2C(C)C)cc1OC (centres unmarked) [Example 51, 2-(3,4-dimethoxyphenyl)-N-(4-(4-isobutylpiperazin-1-yl)cyclohexyl)-3-isopropyl-1H-indol-5-amine] | 767 | 1400
COc1ccc(-c2[nH]c3ccc(NC4CCC(N5CCN(CC(C)C)CC5)CC4)cc3c2C(C)C)cc1OC (centres unmarked) [Example 52, 2-(3,4-dimethoxyphenyl)-N-(4-(4-isobutylpiperazin-1-yl)cyclohexyl)-3-isopropyl-1H-indol-5-amine] | 403 | 1580
COc1ccc(-c2[nH]c3ccc(NC4CCC(N5CCN(CC(C)C)CC5)CC4)cc3c2C(C)C)cc1OC (centres unmarked) [Example 53, 2-(3,4-dimethoxyphenyl)-N-(4-(4-isobutylpiperazin-1-yl)cyclohexyl)-3-isopropyl-1H-indol-5-amine] | 659 | 1210
COc1ccc(-c2[nH]c3ccc(NC4CCC(N5CCN(C6CCCC6)CC5)CC4)cc3c2C(C)C)cc1OC (centres unmarked) [Example 57, N-(4-(4-cyclopentylpiperazin-1-yl)cyclohexyl)-2-(3,4-dimethoxyphenyl)-3-isopropyl-1H-indol-5-amine] | 353 | 460
COc1ccc(-c2[nH]c3ccc(NC4CCC(N5CCN(C6CCCC6)CC5)CC4)cc3c2C(C)C)cc1OC (centres unmarked) [Example 58, N-(4-(4-cyclopentylpiperazin-1-yl)cyclohexyl)-2-(3,4-dimethoxyphenyl)-3-isopropyl-1H-indol-5-amine] | 351 | 1080
COc1ccc(-c2[nH]c3ccc(NC4CCC(N5CCN(CCN6CCCC6)CC5)CC4)cc3c2C(C)C)cc1OC (centres unmarked) [Example 64, 2-(3,4-dimethoxyphenyl)-3-isopropyl-N-(4-(4-(2-(pyrrolidin-1-yl)ethyl)piperazin-1-yl)cyclohexyl)-1H-indol-5-amine] | 357 | 555
COc1ccc(-c2[nH]c3ccc(NC4CCC(N5CCN(Cc6ccc(C)cc6)CC5)CC4)cc3c2C(C)C)cc1OC (centres unmarked) [Example 65, 2-(3,4-dimethoxyphenyl)-3-isopropyl-N-(4-(4-(4-methylbenzyl)piperazin-1-yl)cyclohexyl)-1H-indol-5-amine] | 1180 | 588
COc1ccc(-c2[nH]c3ccc(NC4CCC(N5CCN(Cc6ccc(C)cc6)CC5)CC4)cc3c2C(C)C)cc1OC (centres unmarked) [Example 66, 2-(3,4-dimethoxyphenyl)-3-isopropyl-N-(4-(4-(4-methylbenzyl)piperazin-1-yl)cyclohexyl)-1H-indol-5-amine] | 686 | 583
COc1ccc(-c2[nH]c3ccc(NC4CCC(N5CCN(CCCN6CCCC6)CC5)CC4)cc3c2C(C)C)cc1OC (centres unmarked) [Example 67, 2-(3,4-dimethoxyphenyl)-3-isopropyl-N-(4-(4-(3-(pyrrolidin-1-yl)propyl)piperazin-1-yl)cyclohexyl)-1H-indol-5-amine] | 322 | 589
COc1ccc(-c2[nH]c3ccc(N4CCC(N5CCN(CC6CC6)CC5)CC4)cc3c2C(C)C)cc1OC [Example 87, 5-(4-(4-(cyclopropylmethyl)piperazin-1-yl)piperidin-1-yl)-2-(3,4-dimethoxyphenyl)-3-isopropyl-1H-indole] | 337 | 9800

The next compounds have a lower IC50 [1] than those just listed; values first:

IC50 [1] [nM] | IC50 [2] [nM] | Structure (SMILES)
287 | 1290 | COc1ccc(-c2[nH]c3ccc(N4CCC(N5CCC(N(C)C)CC5)CC4)cc3c2C(C)C)cc1OC [Example 83, 1′-(2-(3,4-dimethoxyphenyl)-3-isopropyl-1H-indol-5-yl)-N,N-dimethyl-[1,4′-bipiperidin]-4-amine]
269 | 970 | COCCN1CCN(C2CCC(Nc3ccc4[nH]c(-c5ccc(OC)c(OC)c5)c(C(C)C)c4c3)CC2)CC1 (centres unmarked) [Example 54, 2-(3,4-dimethoxyphenyl)-3-isopropyl-N-(4-(4-(2-methoxyethyl)piperazin-1-yl)cyclohexyl)-1H-indol-5-amine]
257 | 405 | COc1ccc(-c2[nH]c3ccc(NC4CCC(N5CCN(CCN6CCCC6)CC5)CC4)cc3c2C(C)C)cc1OC (centres unmarked) [Example 63, 2-(3,4-dimethoxyphenyl)-3-isopropyl-N-(4-(4-(2-(pyrrolidin-1-yl)ethyl)piperazin-1-yl)cyclohexyl)-1H-indol-5-amine]
206 | 3860 | COc1ccc(-c2[nH]c3ccc(N4CCC(NCCN(C)C)CC4)cc3c2C(C)C)cc1OC [Example 75, N1-(1-(2-(3,4-dimethoxyphenyl)-3-isopropyl-1H-indol-5-yl)piperidin-4-yl)-N2,N2-dimethylethane-1,2-diamine]
167 | 631 | COc1ccc(-c2[nH]c3ccc(NC4CCC(NCCCN5CCOCC5)CC4)cc3c2C(C)C)cc1OC (centres unmarked) [Example 55, N1-(2-(3,4-dimethoxyphenyl)-3-isopropyl-1H-indol-5-yl)-N4-(3-morpholinopropyl)cyclohexane-1,4-diamine]
136 | 590 | COc1ccc(-c2[nH]c3ccc(NC4CCC(NCCCN5CCOCC5)CC4)cc3c2C(C)C)cc1OC (centres unmarked) [Example 56, N1-(2-(3,4-dimethoxyphenyl)-3-isopropyl-1H-indol-5-yl)-N4-(3-morpholinopropyl)cyclohexane-1,4-diamine]
132 | 925 | COc1ccc(-c2[nH]c3ccc(N4CCC(N5CCN(C6CCCC6)CC5)CC4)cc3c2C(C)C)cc1OC [Example 93, 5-(4-(4-cyclopentylpiperazin-1-yl)piperidin-1-yl)-2-(3,4-dimethoxyphenyl)-3-isopropyl-1H-indole]
114 | 6560 | COc1ccc(-c2[nH]c3ccc(N4CCC(N5CCN(C(C)=O)CC5)CC4)cc3c2C(C)C)cc1OC [Example 82, 1-(4-(1-(2-(3,4-dimethoxyphenyl)-3-isopropyl-1H-indol-5-yl)piperidin-4-yl)piperazin-1-yl)ethan-1-one]
69 | 4640 | COc1ccc(-c2[nH]c3ccc(N4CCC(N5CCCN(C(C)=O)CC5)CC4)cc3c2C(C)C)cc1OC [Example 88, 1-(4-(1-(2-(3,4-dimethoxyphenyl)-3-isopropyl-1H-indol-5-yl)piperidin-4-yl)-1,4-diazepan-1-yl)ethan-1-one]
